Test results reported in PubChem BioAssay AID179 (DTP/NCI, 2004).
“And” between values parts separate entries of the source, which are not always exact repeats. Equal entries are not always repeated. The source made the active and inactive calls.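 The calls were made as follows: active = compounds giving half or more protection of infected cells from virus-caused growth loss, again on retest; inactive = the rest.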

Test system: CEM cells HIV-1 protection, formazan growth assay
Test: NCI AIDS Antiviral Assay
Conditions: for IC50: measured here: growth of uninfected CEM cells
How it was run: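 CEM (human) cells, HIV-1 infected vs uninfected, 5-point dosing, formazan growth read-out. Retest threshold 50% protection.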

Row | SMILES | EC50 | IC50 | outcome
1 | O=c1cccc2n1CC1CNCC2C1 (stereo unspecified) | > 200 µM | > 200 µM | 
2 | O=C1c2cccn2-c2ccccc2SC1c1ccccc1 (stereo unspecified) | > 200 µM | 20.4 µM | 
3 | Cc1cc(C)nc(NS(=O)(=O)c2ccc(Nc3c4ccc(Cl)cc4nc4c(C(=O)Nc5ccc(S(N)(=O)=O)cc5)cccc34)cc2)n1 | > 52.5 µM | 42.7 µM | 
4 | O=C(CC1CCN(C(=O)c2ccccc2)C(Cc2c[nH]c3ccccc23)C1O)N1CCCC1 (stereo unspecified) | > 200 µM | > 200 µM | 
5 | COc1ccc(-c2c(C#N)c(N)n(C3OC(COC(C)=O)C(OC(C)=O)C(OC(C)=O)C3OC(C)=O)c(=S)c2C#N)cc1 (stereo unspecified) | > 200 µM | 83.2 µM and 115 µM | 
6 | COC1/C=C/OC2(C)Oc3c(C)c(O)c4c(O)c(c(/C=N/N5CCN(Cc6cccc(C(F)(F)F)c6)CC5)c(O)c4c3C2=O)NC(=O)C(C)=C/C=C/C(C)C(O)C(C)C(O)C(C)C(OC(C)=O)C1C (stereo unspecified) | > 200 µM | 6.92 µM | 
7 | O=c1c2cccc3c4ccccc4c4sc5ccccc5n1-c4c23 | > 11.5 µM | > 11.5 µM | 
8 | CC(=O)NC1=C(C)C(=O)c2c(nc3n2CCC3OC(=O)CCl)C1=O (stereo unspecified) | > 200 µM | 1.48 µM | 
9 | O=C1CC23CCC12CCCC3=O (stereo unspecified) | > 550 µM | > 550 µM | 
10 | CCOC(=O)/C(=C1/Nc2ccccc2S1)c1ncnc2nc[nH]c12 |  |  | inactive
11 | CCOC(=O)c1c(-c2cccc3ccccc23)c(C#N)c(=S)n(C2OC(COC(C)=O)C(OC(C)=O)C(OC(C)=O)C2OC(C)=O)c1C (stereo unspecified) | > 200 µM | 7.76 µM | 
12 | COc1cc(NCC2COc3c(ccc(OC)c3OC)C2=O)c([N+](=O)[O-])cc1OC (stereo unspecified) | > 200 µM | 186 µM | 
13 | O=[N+]([O-])c1cc2c(cc1O)[nH]c1cccc([N+](=O)[O-])c12 | > 13.8 µM | > 13.8 µM | 
14 | O/N=C1/C(=C/c2ccc(OCc3ccccc3)cc2)CCCC1C(NO)c1ccc(OCc2ccccc2)cc1 (stereo unspecified) | > 7.08 µM | > 7.08 µM | 
15 | O=C(CCc1nc(=S)[nH][nH]1)Nc1cc(Cl)ccc1Cl | > 407 µM | > 407 µM | 
16 | COC(=O)C1(NC(=O)C(N)CC(=O)O)C(C)C1C (stereo unspecified) | > 200 µM | > 200 µM | 
17 | C/C(=N\NC(N)=O)c1sc(-c2nc(C)c(/C(C)=N/NC(N)=O)s2)nc1C | > 9.55 µM | > 9.55 µM | 
18 | c1ccc(CSC2(SCc3ccccc3)CCCCC2)cc1 | > 200 µM | 77.6 µM | 
19 | N#Cc1cn(-c2c3ccccc3nc3ccccc23)c(=O)[nH]c1=O | > 214 µM | 0.288 µM | 
20 | CO[C@]1(c2ccc([N+](=O)[O-])cc2)Oc2ccccc2C(=O)[C@@]1(Nc1ccc(C=O)cc1)OC | > 200 µM | 174 µM | 
21 | O=C1CSC(c2ccc(Cl)cc2)N1c1ccc(Oc2ccc(Cl)cc2)c(Cl)c1 (stereo unspecified) | > 200 µM | 24 µM | 

Row | SMILES | EC50 | IC50 | outcome
22 | O=C(O)CSc1nnc(COc2ccc(Cl)cc2)n1-c1ccccc1 | > 200 µM | 182 µM | 
23 | CN(CCN(C)CC(=O)O)CC(=O)O | > 617 µM | 550 µM | 
24 | CC(C)(C)N=NC(C)(C)N=C=O | > 251 µM | > 251 µM | 
25 | N#CC12C(=O)NC(=O)C1(C#N)C1C=CC2CC1 (stereo unspecified) | > 200 µM | > 200 µM | 
26 | O=C1OCc2nc3c(c(-c4ccccc4C(F)(F)F)c21)C(=O)OC3 |  |  | inactive
27 | c1cn[nH]c1 | > 3630 µM | 1780 µM | 
28 | CCCCCCCCC/C=C(/CC(=O)O)C(=O)O | > 708 µM | > 708 µM | 
29 | Cc1cc(C)nc(NS(=O)(=O)c2ccc(NNc3c4ccccc4nc4c(C(=O)Nc5ccc(S(=O)(=O)Nc6ncccn6)cc5)cccc34)cc2)n1 | > 200 µM | 29.5 µM | 
30 | CN(C)C=O.CN(C)C=O.CN1C(C(=O)Nc2ccccn2)=C([O-])c2ccccc2S1(=O)=O.CN1C(C(=O)Nc2ccccn2)=C([O-])c2ccccc2S1(=O)=O.[Cu+2] |  |  | inactive
31 | O=c1oc2ccccc2c(O)c1C1c2c(c3ccccc3oc2=O)Oc2c1c(=O)oc1ccccc21 |  |  | inactive
32 | Cc1ccc(S(=O)(=O)N(/N=C(\N)Oc2ccc(Cl)cc2)C(=N)Oc2ccc(Cl)cc2)cc1 | > 100 µM | > 100 µM | 
33 | COc1ccc(-c2cc(-c3ccco3)c(C#N)c(=O)n2C2OC(COC(C)=O)C(OC(C)=O)C(OC(C)=O)C2OC(C)=O)cc1 (stereo unspecified) | > 11.5 µM | > 11.5 µM | 
34 | COC(=O)C12C=CC(C1)n1c(=O)n(-c3ccccc3)c(=O)n12 (stereo unspecified) | > 295 µM | 275 µM | 
35 | O=C(O)c1cc(CNc2ccc(/C=C/c3ccc(NCc4ccc(O)c(C(=O)O)c4)cc3S(=O)(=O)O)c(S(=O)(=O)O)c2)ccc1O | 102 µM | 263 µM | 
36 | S=C1NC2=C(COc3ccccc32)C(c2ccc(Cl)cc2)N1 (stereo unspecified) | > 200 µM | 23.4 µM | 
37 | CN1C(=O)CN2CCc3ccccc3C2c2cc(Cl)ccc21 (stereo unspecified) | > 200 µM | 129 µM | 
38 | Cc1cn(C2CCC(=O)C2)c(=O)[nH]c1=O (stereo unspecified) |  |  | inactive
39 | N#CC(C(=O)CCCC(=O)Nc1ccc(Cl)cc1Cl)c1ccc(Cl)cc1 (stereo unspecified) |  |  | inactive
40 | CSc1c(C(=O)Nc2ccc(Cl)cc2)c(N)n(N)c(=O)c1C#N | > 200 µM | 40.7 µM | 
41 | COC(=O)/C(C#N)=C\NC(=S)NNC(C)=O | > 200 µM | > 200 µM | 
42 | CC1(C)C2CCC1(C)C(Cl)([N+](=O)[O-])C2 (stereo unspecified) |  |  | inactive

Row | SMILES | EC50 | IC50 | outcome
43 | Nc1cc(Cl)ccc1SSc1ccc(Cl)cc1N | > 200 µM | 12 µM | 
44 | Cc1cn(C2CC(OP(=O)(O)OCC3CCC(n4ccc(N)nc4=O)O3)C(CO)O2)c(=O)[nH]c1=O (stereo unspecified) | 0.204 µM | 35.5 µM | 
45 | NP(=O)(OCC1=CC(=O)c2ccccc2C1=O)N(CCBr)CCBr (stereo unspecified) |  |  | inactive
46 | COc1cc2c(cc1OC)C13CCN4CC5=CCOC6CC(=O)N2C1C6C5CC43 (stereo unspecified) (tested in a mixture with another compound) | > 200 µM | 53.7 µM | 
47 | CCN(CC)CCC(=O)/C=C/c1ccc(Cl)c(Cl)c1 | > 200 µM | 5.13 µM | 
48 | COc1ccc2cc1Oc1ccc(cc1)CC1c3cc(c(OC)cc3CCN1C)Oc1c3c(cc4c1C(C2)N(C)CC4)OCO3 (stereo unspecified) |  |  | inactive
49 | COc1ccc(C(O)C/[N+]([O-])=C/c2ncc([N+](=O)[O-])n2C)cc1 (stereo unspecified) |  |  | inactive
50 | CCC(C)C(NC(=O)c1ccccc1SC(=O)OCCCC[n+]1ccccc1)C(N)=O (stereo unspecified) |  |  | inactive
51 | COC(=O)C1CC2c3ccccc3C1c1ccccc12 (stereo unspecified) | > 200 µM | > 200 µM | 
52 | O=C(COC(=O)c1cccc2c(=O)c3ccccc3[nH]c12)Nc1ccc(C(=O)O)cc1 |  |  | inactive
53 | Cc1c(C(=O)NCCO)[n+](=O)c2cc(Cl)ccc2n1[O-] | > 832 µM | 56.2 µM | 
54 | C[C@H]1CN[C@@H]2[C@@H](C)[C@H]3[C@@H](C[C@H]4[C@@H]5CC[C@H]6C[C@@H](N)CC[C@]6(C)[C@H]5CC[C@]34C)O[C@@]2(O)C1 | > 38 µM | 1.74 µM | 
55 | Cc1ccc(S(=O)(=O)N2CCC(C(=O)O)(c3ccccc3)CC2)cc1 | > 182 µM | > 182 µM | 
56 | CC[C@@H]1C[C@@H]2CN3CCc4c([nH]c5ccc(OC)cc45)C(COC(=O)c4ccc(OC)c(OC)c4)(C2)C13 |  |  | inactive
57 | N#Cc1c(Cl)/c(=C/O)c(=O)n2c1nc1ccccc12 | > 200 µM | 110 µM | 
58 | Cc1c(O)c(OC2OC(CO)C(O)C(O)C2O)cc2c1CC[C@@H]1C2(C)C(=O)C[C@]2(C)[C@@H]([C@@](C)(O)C(O)/C=C/C(C)(C)O)[C@H](O)C[C@@]12C (stereo partly specified) | > 200 µM | > 200 µM | 
59 | Cc1ccc(S(=O)(=O)N2CCSCCN(S(=O)(=O)c3ccc(C)cc3)CCN(S(=O)(=O)c3ccc(C)cc3)CC2)cc1 | > 4.17 µM | > 4.17 µM | 
60 | COc1ccc(C2c3cc4c(cc3OC(N3CCOCC3)C2C)OCO4)cc1 (stereo unspecified) | > 200 µM | 53.7 µM | 
61 | COC(=O)CCN(CCC(=O)OC)C1CC1 | > 200 µM | > 200 µM | 
62 | NC(=Nc1c([N+](=O)[O-])cnc2ccccc12)N1CCOCC1 | > 200 µM | 126 µM | 
63 | O=c1ccc(=O)n(CCc2ccccn2)[nH]1 | > 200 µM | > 200 µM | 

Row | SMILES | EC50 | IC50 | outcome
64 | Nc1nc(Cl)cc(NCC2(CO)CC(=O)C2)n1 | > 200 µM | > 200 µM | 
65 | Cc1cccc(Nc2cn(COCc3ccccc3)c(=O)[nH]c2=O)c1 | > 200 µM | 81.3 µM | 
66 | CC(N)C(=O)NC(C)C(=O)NC(C)C(=O)NC(C)C(=O)NC(C)C(=O)NC(C)C(=O)O (stereo unspecified) | > 100 µM | > 100 µM | inactive
67 | Cc1n[nH]c2ccc(Br)cc2c1=O | > 50.1 µM | > 50.1 µM | 
68 | CC(=O)Nc1ccc(C(=O)NN2C(=O)C(Cl)/C2=C/c2ccco2)cc1 (stereo unspecified) |  |  | inactive
69 | O=CNNC(=O)Nc1cccc2ccccc12 | > 200 µM | > 200 µM | 
70 | CCCCc1c2c([n+]([O-])c3c1CCCC3)CCCC2 | > 138 µM | 22.4 µM | 
71 | O=C1c2cc3c(cc2CC1Cc1ccc2c(c1)CCC2)CCC3 (stereo unspecified) | > 200 µM | 91.2 µM | 
72 | COc1ccc2c(c1)C(=O)N1CCOC1C2C(=O)O (stereo unspecified) | > 955 µM | > 955 µM | 
73 | O=C(Cc1ccccc1)N/N=C(\C1=Nc2ccc([N+](=O)[O-])cc2NC1O)C(O)c1ccc([N+](=O)[O-])cc1 (stereo unspecified) | > 51.3 µM | 47.9 µM | 
74 | C=C([C@@]1(O)C[C@H]2[C@H](CCC2(OC)OC)[C@@H]2c3ccccc3O[C@@H]21)[Si](C)(C)C |  |  | inactive
75 | COc1cc(NS(=O)(=O)c2ccc(N)cc2)nc(OC)n1 | > 200 µM | > 200 µM | 
76 | COC(=O)CC1C(=O)OC23CCC1C2(C)CCC1C3CCC2CC(OC(C)=O)CCC21C (stereo unspecified) |  |  | inactive
77 | CC1=NC(C)(C)CC2CCC(O)C12 (stereo unspecified) | > 200 µM | > 200 µM | 
78 | O=C(/N=N/C(=O)Oc1ccccc1)Oc1ccccc1 | > 200 µM | 33.1 µM | 
79 | Cc1ccc(N2C(=O)/C(=C\c3ccc(N(CCC#N)CCC#N)cc3)N=C2COc2ccccc2)cc1 | > 38 µM | > 38 µM | 
80 | c1cnc2c(c1)-n1cccc1C1(CCCCC1)NN2 | > 200 µM | > 200 µM | 
81 | COc1cccc(C2c3cc4c(cc3OC(NNC(N)=O)C2C)OCO4)c1O (stereo unspecified) | > 200 µM | 1.12 µM | 
82 | O=S1(=O)Cc2nc3ccccc3n2C1c1c(F)cccc1F (stereo unspecified) | 29.5 µM | 75.9 µM | 
83 | Cc1ccc(NC(=O)CCC(=O)C2CC(=O)CC/C2=N\NC(=O)c2cc3ccccc3cc2O)cc1C (stereo unspecified) | > 363 µM | 12.9 µM | 
